From patent publication US12398141B2 (SHANGHAI SYNERGY PHARMACEUTICAL SCIENCES CO., LTD, priority 2019, dated 2025) come the findings set out here.

Series [1] deals with Blast T cell. As to the kind of experiment: Cell proliferation test of IL-2 stimulated Blast T cell. The series is classed as cell-based. Particulars: Homo sapiens; IL-2 stimulated Blast T cell proliferation, 72 hours. The procedure: Inhibiting test of the compounds of the invention on proliferation of Blast T cell and TF-1 cell (American type culture collection) was carried out by the following method. The tested compounds […], and […] were dissolved in dimethyl sulfoxide from 0.0006 to 10 μM in quadruplicate dilutions. […] 10 μg/ml […] was added to stimulate and obtain cells with a density of 2×10^6/mL, which were incubated for 3 days. The cells were washed with phosphate buffer for three times and IL-2 (100 u/ml) was added to stimulate for 1 week. Cells were suspended using the culture medium and seeded at 5×10^4 cell/well density into 96-well plates, and incubated for 1 h with the prepared test compound or DMSO control at various concentrations from 0.0006 to 10 μM diluted by 4-fold volume. After incubation with 20 u/ml of IL-2 (50 μl/well without reference well) for 72 hours, Celltiter Glo® reagent (Promega, G7571) was added and mixed for 5 minutes, then incubated for 30 minutes at room temperature. The luminescence value was read on SpectraMax L (Molecular Device). […] The IC50 values of the corresponding compounds were then obtained by fitting by using the XLFit fitting tool in excel.

In series [2] the test system is TF-1 cell. As to the kind of experiment: TF-1 cell proliferation test. The series is classed as cell-based. Particulars: Homo sapiens, 72 h. The protocol: Inhibiting test of the compounds of the invention on proliferation of Blast T cell and TF-1 cell (American type culture collection) was carried out by the following method. The tested compounds […], and […] were dissolved in dimethyl sulfoxide from 0.0006 to 10 μM in quadruplicate dilutions. […] The luminescence value was read on Microplate Reader (Molecular Device). […] The IC50 values of the corresponding compounds were then obtained by fitting by using the XLFit fitting tool in excel.

In series [3] the test system is male ICR mice. As to the kind of experiment: Carrageenan-induced paw swelling in mice. Particulars: 10 mg/kg intragastric. Format: in vivo. The protocol:
The inhibiting effects of compounds H01, H07, H11, H12, H14, H15, H22, H25, H29, H30, H33, H39 and H44 on paw swelling in mice were determined after intragastric administration by using male ICR mice (ShanghaiSippr-BK laboratory animal Co. Ltd.), aged 8 weeks and weighing 22-24 g as test animals. The anti-inflammatory pharmacodynamics characteristic of the compounds of the invention was discussed.
A certain amount of compounds were taken and dissolved in 4% Tween 80/0.5% hydroxy propyl methyl cellulose solution. A volume of intragastric administration in mice was 10 ml/kg.
Mice were given 10 mg/kg compounds H01, H07, H11, H12, H14, H15, H22, H25, H29, H30, H33, H39, and H44 and the positive drug indomethacin (Diamond Reagent Co., Ltd., China) by intragastric administration at the dosages shown in the table below and 20 μL 1% (W/V) carrageenan was injected subcutaneously into the plantar 0.5 h later. A paw volume was measured with a paw swelling meter before and at different time points after modeling (0.5 h, 1 h and 2 h). According to the formula: paw swelling rate=(paw volume after administration−basic paw volume)/basic paw volume×100, the inhibiting effect of the compounds on paw volume was calculated. The basic paw volume was a paw volume before administration.

The subject of series [4] is Sprague-Dawley (SD) mice. In words: Concanavalin-induced paw swelling in mice. The series is classed as in vivo. Particulars: 10 mg/kg intragastric. The protocol:
The inhibiting effects of compounds H13, H14, H09, H11 and compounds of Example 12 on paw swelling in […] were determined after intragastric administration by using Sprague-Dawley (SD) […] (ShanghaiSippr-BK laboratory animal Co. Ltd.), aged 6-7 weeks and weighing 160-180 g as test animals. The anti-inflammatory pharmacodynamics characteristic of the compounds of the invention was discussed.
A certain amount of compounds were taken and dissolved in 4% Tween 80/0.5% hydroxy propyl methyl cellulose solution.
Mice were given compounds H01, H07, H11, H12, H14, H15, H22, H25, H29, H30, H33, H39, and H44 and the positive drug indomethacin (Diamond Reagent Co., Ltd., China) by intragastric administration at the dosages shown in the table below and 0.1 ml 0.03% (W/V) concanavalin was injected subcutaneously into the plantar 0.5 h later. A paw volume was measured with a paw swelling meter before modeling and 1 h, 2 h, 4 h and 6 h after modeling. According to the formula: paw swelling rate=(paw volume after administration−basic paw volume)/basic paw volume×100, the inhibiting effect of the compounds on paw volume was calculated. The basic paw volume was a paw volume before administration.

Series [5] in a line: Pharmacokinetic test after intragastric administration. Format: in vivo. Conditions: Sprague-Dawley, mouse, plasma, po, SD mice, 5 mg/kg intragastric. The procedure: Drug concentrations of compounds H01, H07, H11, H12, H14, H15, H22, H25, H29, H30, H33, H39 and H44 intragastrically administrated in plasma by using LC/MS/MS method at various time points were determined by using Sprague-Dawley (SD) […], aged 7-8 weeks and weighing […] as test animals. Pharmacokinetic behavior of the compounds of the invention in […] was studied and its pharmacokinetic characteristics were evaluated.
A certain amount of compounds was taken and dissolved in 50% PEG400/water to prepare a uniform solution.
Mice were administered intragastrically with the above compounds with a dosage of 5 mg/kg. Blood (0.2 ml) was taken from orbits before administration and 0.083 h, 0.25 h, 0.5 h, 1.0 h, 2.0 h, 4.0 h, 6.0 h, 8.0 h, 12.0 h and 24.0 h after administration. The blood was placed in anticoagulant tubes containing dipotassium ethylene glycol diethyl ether diamine tetraacetic acid, centrifugated at 6000 rpm at 4° C. for 10 minutes to separate plasma and saved at −80° C.
50 μL plasma at various time was taken and 150 μL acetonitrile solution containing internal standard tolbutamide (Sigma, USA) was added, mixed and stirred for 5 minutes. After centrifugation for 5 minutes at 12,000 rpm, 100 μL supernatant was taken, mixed with 200 μL water, following by sample injection and analysis.
Liquid chromatogram system was LC-20AD UFLC High Performance Liquid Chromatography system. Mass spectrum system was AB Sciex API4000 triple quadrupole mass spectrometer equipped with Electron Spray Ionization (ESI) (Applied Biosystems, Canada). A software for controlling liquid chromatography-mass spectrometry and quantitative analysis was Anna Rust 1.6 (Applied Biosystems, Canada). Pharmacokinetic parameters were analyzed by WinNonlin (version 5.2, Pharsight, Mountain View, […]) non-compartment model.
The test compound was dissolved in dimethyl sulfoxide to prepare a stock solution with a concentration of 1 mg/mL. The solution was diluted with 50% acetonitrile to obtain a series of standard working solutions with concentrations of 10 μg/mL, 3 μg/mL, 1 μg/mL, 0.3 μg/mL, 0.1 μg/mL, 0.03 μg/mL and 0.01 μg/mL, and a series of standard quality control solutions with concentrations of 8 μg/mL, 0.5 μg/mL, 0.03 μg/mL. 5 μL standard solution was mixed with 45 μL blank plasma substrate uniformly to obtain standard solutions of each concentration of a standard curve (1000 ng/mL, 500 ng/mL, 200 ng/mL, 100 ng/mL, 10 ng/mL, 5 ng/mL, 2 and 1 ng/mL) and quality control solutions (plasma samples: 800 ng/mL, 50 and 3 ng/mL).
Internal standard tolbutamide solid powder was dissolved in dimethyl sulfoxide to prepare a 1 mg/mL stock solution. The stock solution was diluted with 100% acetonitrile to obtain 200 ng/mL solution as a protein precipitation solution.

Series [6] is described as follows: Collagen-induced rheumatoid arthritis model, clinical score. Format: in vivo, mice. On the set-up: key: 0-4 per limb by redness/deformity, max 16 per animal. Particulars: clinical score 0-16 per animal, Day 0 (before modeling). The procedure:
(§1) The effects of compounds H07, H12, H14, H25, H30, H39 and H44 on rheumatoid arthritis in […] were determined after long term administration by using Lewis male […] (Beijing Vital River Laboratory Animal Technology Co., Ltd.), aged 5-6 weeks and weighing […] as test animals. The anti-inflammatory pharmacodynamics characteristic of the compounds of the invention was discussed.
(§2) A certain amount of compounds were taken and dissolved in 4% Tween 80/0.5% hydroxy propyl methyl cellulose solution. A volume of intragastric administration of mice was 10 ml/kg.
(§3) Collagen type II was dissolved in 0.1M acetic acid and kept in a 4° C. refrigerator overnight at a collagen concentration of 4 mg/mL. Same volume of incomplete Freund adjuvant (Sigma, USA) was added in collagen before injection in test, which was emulsified high speed homogenizer (30000 rpm) to prepare a collagen emulsion. This procedure was carried out on ice.
(§4) Mice were immunologically injected with the collagen emulsion by two separate times for modeling on days 1 and 7 (the day before modeling was day 0). 0.1 ml of collagen emulsion prepared as above was injected intradermally into a root of tail at a single point, and 0.2 ml was injected intradermally into back at two points. The animals were subjected to clinical score and paw volume test from day 10 to day 14 after modeling. Animals successfully modeled (average clinical score≥3 points/animal) were assigned to each administration group, with each group included 10 animals. They were administrated intragastrically with above compounds or resolvents at a dosage of 10 mg/kg twice/day, and administrated intragastrically with methotrexate (2 mg/kg, Sigma, USA) every three days, until day 27. During the test, the […] were scored twice a week, and the paw volume and body weight were measured twice.
(§5) According to the different degrees of lesions (redness and joint deformation), the scores were ranged from 0 to 4 points, with the highest score of 4 points for each limb and 16 points for each animal. Scoring standards are as follows: 0, no redness; 1, slight redness on mid legs (tarsals) or ankles; 2, slight redness from ankles to mid legs (tarsals); 3, medium redness from ankles to tarsometatarsal joints; 4, severe redness from toes or fingers to ankles or wrist joints.

Series [7] concerns Lewis male mice. The description is as above. Conditions: clinical score 0-16 per animal, compounds 10 mg/kg twice/day, methotrexate 2 mg/kg every three days. The arrangement: key: 0-4 per limb by redness/deformity, max 16 per animal. Format: in vivo. The protocol:
as §1, §2, §3, §4, §5

As to `CC[C@@H]1CN(C(=O)NCC(F)(F)F)CC1Nc1c(C#N)cnc2[nH]ccc12` (stereo partly shown) [Compound H01], the IC50 in series [1] was 0.013 µM; in series [2], 0.67 µM. In addition, the “Paw swelling_0.5 h (%)” value in series [3] (0.5 h) amounted to 33.99 ± 1.69%. Further, the “Paw swelling rate_1 h (%)” value in series [3] (1 h) stood at 40.93 ± 1.64%; in series [4] (1 h) it was 25.70 ± 1.50%. The “Paw swelling rate_2 h (%)” value in series [3] (2 h) was found to be 41.56 ± 5.23%; in series [4] (2 h), 25.20 ± 2.40%. Further, the “Paw swelling rate_4 h (%)” value in series [4] (4 h) was determined as 31.20 ± 3.10%. The “Paw swelling rate_6 h (%)” value in series [4] (6 h) was determined as 30.20 ± 3.10%. Also, in series [5] (read-out: Area under the curve (AUC0-24, ng/ml · h)), the AUC(0-t) came out at 1720 ± 220 ng·h/mL. The Cmax in series [5] (read-out: Plasma concentration (Cmax, ng/ml)) stood at 578 ± 72 ng/mL. In series [5] (read-out: half life (T1/2, h) (converted)), the half-life is 2.13 ± 0.27 h.

As to `CN(Cc1cnc2nc(N)nc(N)c2n1)c1ccc(C(=O)N[C@@H](CCC(=O)O)C(=O)O)cc1` [Methotrexate, reference compound], in series [6], the “Score Day 0” value was determined as 0.00 ± 0.00. Besides, the “Score Day 13” value in series [7] (Day 13) stood at 3.10 ± 0.43. The “Score Day 14” value in series [7] (Day 14) was determined as 3.60 ± 0.37. Besides, the “Score Day 18” value in series [7] (Day 18) is given as 4.10 ± 0.47. Moreover, the “Score Day 21” value in series [7] (Day 21) is reported as 6.45 ± 0.23. Besides, the “Score Day 25” value in series [7] (Day 25) amounted to 8.87 ± 0.21. In series [7] (Day 27), the “Score Day 27” value worked out at 9.65 ± 0.13.

For orientation: IC50 means the concentration that inhibits the measured activity by half.
